# According to patent US11723929B2, “Methods of improving cell-based therapy” (THE REGENTS OF THE UNIVERSITY OF CALIFORNIA, priority 2017, dated 2023):
# How the values were obtained:
# COX-1 = test: Inhibitory activity against COX-1 (Table 4); type: biochemical; parameters: dose or concentration left out as unconfirmed
# sEH [1] = target: T1, sEH (Homo sapiens (Human), UniProt P34913); test: Inhibitory activity against sEH (Table 4); settings: read-out: sEH
# [2] = PTZ Induced Seizure Model; Example 52 and FIG. 7 of WO 2015/148954; cited from earlier work
# Exp. logP (Table 3) = type: physicochemical
# sEH [3] = target: T1, sEH; test: Testing as inhibitor of sEH; type: biochemical
# Source text: Derivatives of urea are transition state mimetics that form a group of sEH inhibitors. […] Any particular urea derivative or other compound can be easily tested for its ability to inhibit sEH by standard assays, such as those discussed herein. The production and testing of urea and carbamate derivatives as sEH inhibitors is set forth in detail in, for example, Morisseau et al., Proc Natl Acad Sci (USA) 96:8849-8854 (1999).
# (§1) Both the 1- and the 2-adamantyl ureas have been tested and have about the same high activity as an inhibitor of sEH.
# One category of these inhibitors comprises inhibitors that mimic the substrate for the enzyme. The lipid alkoxides (e.g., the 9-methoxide of stearic acid) are an exemplar of this group of inhibitors.
# Metabolic stability = type: in vitro ADME
# Source text: as §1
# PDE4 = PDE4 inhibition by cAMP increase in live HEK cells transfected with a PKA biosensor; type: cell-based, human; settings: relative to Rolipram at 1 μM
# [4] = test system: murine myocardial infarction (MI) model; test: Echocardiography, left ventricular fractional shortening after MI; type: in vivo, mouse
# Method: The animals were followed for a period of three weeks at which time repeat echocardiograms were performed.
# An increase in hiPSC-CMs engraftment translated into a significant improvement in cardiac function.
# [5] = cited from earlier work
# [6] = test system: murine myocardial infarction (MI) model; test: Flow cytometric quantification of GFP+ hiPSC-CMs in the post MI model; settings: NSG mice post MI with transplanted hiPSC-CMs, with or without TPPU; after 4 weeks
# [7] = test system: murine myocardial infarction (MI) model; test: In vivo bioluminescence imaging of transplanted hiPSC-CMs in the post MI model; settings: NSG mice post MI with transplanted hiPSC-CMs, with or without TPPU 15 mg/L in drinking water; BLI at 3 and 4 weeks
Compound,IC50 (sEH [1]),COX-1 (% inhibition) (COX-1),further results
"CS(=O)(=O)c1ccc(-n2nc(CNC(=O)NC34CC5CC(CC(C5)C3)C4)cc2-c2ccccc2)cc1 [compound 1860, 1-Adamantan-1-yl-3-[1-(4-methanesulfonyl-phenyl)-5-phenyl-1H-pyrazol-3-ylmethyl]-urea]",25 ± 1 nM,12.7 % inhibition,–
O=C(Nc1ccc(OC(F)(F)F)c(F)c1)NC1CCN(C(=O)C2CCOCC2)CC1 [1-(3-fluoro-4-(trifluoromethoxy)phenyl)-3-(1-(tetrahydro-2H-pyran-4-carbo-nyl)piperidin-4-yl)urea],–,–,crossing of the blood-brain barrier [2]: cross the blood-brain barrier
O=C(Nc1ccc(C(F)(F)F)cc1)NC1CCN(C(=O)C2(C(F)(F)F)CC2)CC1,–,–,logP (Exp. logP (Table 3)): 4.63
"CCCCCCCCCCCCNC(=O)NC12CC3CC(CC(C3)C1)C2 [ADU, N-Adamantyl-N′-dodecyl urea]",–,–,activity as inhibitor of sEH (sEH [3]): particularly high activity; metabolic stability (Metabolic stability): metabolically stable
"NS(=O)(=O)c1ccc(-n2nc(NC(=O)Nc3cccc(C(F)(F)F)c3)cc2-c2ccccc2)cc1 [compound 2121, 4-{5-Phenyl-3-[3-(3-trifluoromethyl-phenyl)-ureido]-pyrazol-1-yl}-benzenesulfonamide]",88 ± 5 nM,33.9 % inhibition,–
"CS(=O)(=O)c1ccc(-n2nc(CNC(=O)Nc3ccc(C(F)(F)F)cc3)cc2-c2ccccc2)cc1 [compound 2324, 1-[1-(4-Methanesulfonyl-phenyl)-5-phenyl-1H-pyrazol-3-ylmethyl]-3-(4-trifluoromethyl-phenyl)-urea]",110 ± 5 nM,10.7 % inhibition,–
"CS(=O)(=O)c1ccc(-n2nc(CNC(=O)Nc3cccc(C(F)(F)F)c3)cc2-c2ccccc2)cc1 [compound 1861, 1-[1-(4-Methanesulfonyl-phenyl)-5-phenyl-1H-pyrazol-3-ylmethyl]-3-(3-trifluoromethyl-phenyl)-urea]",72 ± 8 nM,7.8 % inhibition,–
"NS(=O)(=O)c1ccc(-n2nc(CNC(=O)Nc3cccc(C(F)(F)F)c3)cc2-c2ccccc2)cc1 [compound 2107, 4-{5-Phenyl-3-[3-(3-trifluoromethyl-phenyl)-ureidomethyl]-pyrazol-1-yl}-benzenesulfonamide]",84 ± 6 nM,16.9 % inhibition,–
"CC(C)c1cccc(C(C)C)c1NC(=O)NCCCc1cc(-c2ccccc2)n(-c2ccc(S(N)(=O)=O)cc2)n1 [compound 2325, 4-(3-{3-[3-(2,6-Diisopropyl-phenyl)-ureido]-propyl}-5-phenyl-pyrazol-1-yl)-benzenesulfonamide]",1550 ± 70 nM,6.2 % inhibition,–
CCC(=O)N1CCC(NC(=O)Nc2ccc(OC(F)(F)F)cc2)CC1 [TPPU],–,–,"cAMP increase (% of Rolipram) (PDE4): 40 ± 10 % of Rolipram; improvement of FS with both sEHI and cells ([4]; MI+hiPSC-CM+TPPU, highest compared to other treatment groups): 40%; left ventricular fractional shortening (FS), MI+hiPSC-CM+TPPU group ([4]; after three weeks of TPPU treatment (before treatment 44±6%)): 61±2%; fractional shortening (FS), MI+TPPU group ([4]; post treatment): 55±0.7%; fractional shortening (FS), MI+TPPU+Vehicle (PBS injection) group ([4]; post treatment): 51±2%; half-life ([5]; compared with many previous compounds (ref. 50)): relatively longer half-life; area under the curve ([5]; in vivo): high area under the curve values; number of GFP+ hiPSC-CMs by flow cytometry [6]: 9.9±0.5%; BLI signal of transplanted GFP+ hiPSC-CMs [7]: 7.4×10^6±1.7×10^6 photons/s/cm^2/sr"
"NS(=O)(=O)c1ccc(-n2nc(CCNC(=O)Nc3cccc(C(F)(F)F)c3)cc2-c2ccccc2)cc1 [compound 2313, 4-(5-Phenyl-3-{2-[3-(3-trifluoromethyl-phenyl)-ureido]-ethyl}-pyrazol-1-yl)-benzenesulfonamide]",26 ± 3 nM,22.0 % inhibition,–
"CS(=O)(=O)c1ccc(-n2nc(CNC(=O)Nc3ccccc3)cc2-c2ccccc2)cc1 [compound 2322, 1-[1-(4-Methanesulfonyl-phenyl)-5-phenyl-1H-pyrazol-3-ylmethyl]-3-phenyl-urea]",47 ± 4 nM,–,–
"CS(=O)(=O)c1ccc(-n2nc(CNC(=O)Nc3ccc(OC(F)(F)F)cc3)cc2-c2ccccc2)cc1 [compound 2323, 1-[1-(4-Methanesulfonyl-phenyl)-5-phenyl-1H-pyrazol-3-ylmethyl]-3-(4-trifluoromethoxy-phenyl)-urea]",6 ± 0.5 nM,10.4 % inhibition,–
"Cc1ccc(-c2cc(CCCNC(=O)Nc3cccc(C(F)(F)F)c3)nn2-c2ccc(S(N)(=O)=O)cc2)cc1 [compound 2152, 4-(5-p-Tolyl-3-{3-[3-(3-trifluoromethyl-phenyl)-ureido]-propyl}-pyrazol-1-yl)-benzenesulfonamide]",10 ± 1 nM,12.1 % inhibition,–
"CC(C)(C)c1cc(CNC(=O)Nc2cccc(C(F)(F)F)c2)nn1-c1ccc(S(C)(=O)=O)cc1 [compound 2106, 1-[5-tert-Butyl-1-(4-methanesulfonyl-phenyl)-1H-pyrazol-3-ylmethyl]-3-(3-trifluoromethyl-phenyl)-urea]",32 ± 3 nM,2.4 % inhibition,–

# Now from value to compound, other results behind:
IC50 (sEH [1]),Compound,COX-1 (% inhibition) (COX-1),further results
4.1 ± 0.4 nM,"NS(=O)(=O)c1ccc(-n2nc(CCCNC(=O)Nc3cccc(C(F)(F)F)c3)cc2-c2ccccc2)cc1 [compound 2246, 4-(5-Phenyl-3-{3-[3-(3-trifluoromethyl-phenyl)-ureido]-propyl}-pyrazol-1-yl)-benzenesulfonamide]",27.2 % inhibition,–
0.5 ± 0.1 nM,"NS(=O)(=O)c1ccc(-n2nc(CCCNC(=O)NC3CCCCCC3)cc2-c2ccccc2)cc1 [compound 2247, 4-{3-[3-(3-Cycloheptyl-ureido)-propyl]-5-phenyl-pyrazol-1-yl}-benzenesulfonamide]",10.2 % inhibition,–
0.5 ± 0.1 nM,"NS(=O)(=O)c1ccc(-n2nc(CCCNC(=O)NC34CC5CC(CC(C5)C3)C4)cc2-c2ccccc2)cc1 [compound 2326, 4-{3-[3-(3-Adamantan-1-yl-ureido)-propyl]-5-phenyl-pyrazol-1-yl}-benzenesulfonamide]",6.7 % inhibition,–
3.4 ± 0.2 nM,"CS(=O)(=O)c1ccc(-n2nc(CCCNC(=O)Nc3cccc(C(F)(F)F)c3)cc2-c2ccccc2)cc1 [compound 1862, 1-{3-[1-(4-Methanesulfonyl-phenyl)-5-phenyl-1H-pyrazol-3-yl]-propyl}-3-(3-trifluoromethyl-phenyl)-urea]",6.4 % inhibition,–
2.6 ± 0.3 nM,"CS(=O)(=O)c1ccc(-n2nc(CNC(=O)NC3CCCCCC3)cc2-c2ccccc2)cc1 [compound 2321, 1-Cycloheptyl-3-[1-(4-methanesulfonyl-phenyl)-5-phenyl-1H-pyrazol-3-ylmethyl]-urea]",3.4 % inhibition,–
0.8 ± 0.1 nM,"NS(=O)(=O)c1ccc(-n2nc(CCCNC(=O)Nc3ccccc3)cc2-c2ccccc2)cc1 [compound 2245, 4-{5-Phenyl-3-[3-(3-phenyl-ureido)-propyl]-pyrazol-1-yl}-benzenesulfonamide]",15.8 % inhibition,–
0.9 ± 0.1 nM,"NS(=O)(=O)c1ccc(-n2nc(CCCNC(=O)Nc3ccc(C(F)(F)F)cc3)cc2-c2ccccc2)cc1 [compound 2328, 4-(5-Phenyl-3-{3-[3-(4-trifluoromethyl-phenyl)-ureido]-propyl}-pyrazol-1-yl)-benzenesulfonamide]",22.7 % inhibition,–
0.5 ± 0.1 nM,"NS(=O)(=O)c1ccc(-n2nc(CCCNC(=O)Nc3ccc(OC(F)(F)F)cc3)cc2-c2ccccc2)cc1 [compound 2329, 4-(5-Phenyl-3-{3-[3-(4-trifluoromethoxy-phenyl)-ureido]-propyl}-pyrazol-1-yl)-benzenesulfonamide]",13.8 % inhibition,–
0.8 ± 0.1 nM,"NS(=O)(=O)c1ccc(-n2nc(CCCNC(=O)Nc3ccc(Cl)cc3)cc2-c2ccccc2)cc1 [compound 2327, 4-(3-{3-[3-(4-Chloro-phenyl)-ureido]-propyl}-5-phenyl-pyrazol-1-yl)-benzenesulfonamide]",15.2 % inhibition,–
